The source of these data is US11337424B2, “Fungicidal compounds and mixtures for fungal control in cereals” (Corteva Agriscience LLC, priority 2016, dated 2022).

Holding throughout (type): in vivo
For test [1], the system named is Puccinia striiformis (PUCCST). The test is described as follows: Field assessment of yellow rust of wheat (PUCCST), 2 field trials, relative AUDPC. Particulars: % control based on AUDPC, average of 2 trials. From the text: (§1) Treatments consisted of the compound of Formula I and fenpicoxamid either using individually or as a two-way mixture with the compound of Formula I. The compound of Formula I was applied with Agnique BP-420 (50% w/w at 0.3% v/v) at 75 and 150 g ai/ha and fenpicoxamid was applied with Agnique BP-420 (50% w/w at 0.3% v/v) at 75 and 100 g ai/ha. Commercial standards used in the studies were Fluxapyroxad (Imtrex), applied at 100 g ai/ha, and Metconazole+Fluxapyroxad (Librax), applied at 161 g ai/ha.
Field Assessment of Puccinia striiformis (PUCCST) in Wheat:
Fungicidal treatments containing the compound of Formula I and fenpicoxamid, either individually or as a two way mixture, were assessed against yellow rust of wheat (PUCCST) in two separate field trials. In the first trial, fungicidal treatments were applied twice at B31-32 (early curative, 4% infection at application on L3) and B39 (16.3% infection at application on L3) growth stages of winter wheat (TRZAW, Fairplay variety) under naturally occurring infection with PUCCST. The treatments were part of an experimental trial designed as a randomized complete block with four replications and a plot of approximately 1×6 m. Treatments were applied at water volume of 200 L/ha, using a backpack plot sprayer (BKPCKENG, F110-015 Hardi (3) Flat fan nozzle) and pressurized at 200 kPa.
In the second trial, fungicidal treatments containing the compound of Formula I and fenpicoxamid, either individually or as a two way mixture, were applied twice at B32 (protectant, 0% infection on L3 at application) and B37 (early curative, 20% infection on L3 at application) growth stages of wheat (TRZAW, Torch variety) under naturally occurring infection with PUCCST. The treatment was part of an experimental trial designed as a randomized complete block with four replications and a plot of approximately 2×4 m. Treatments were applied at water volume of 200 L/ha, using a backpack precision plot sprayer (BKCKAIR, F110-03 Hypro (4) Flat fan nozzle) and pressurized at 210 kPa.
(§2) Disease severity (percentage of visual diseased foliage on whole plot or leaves) in both field trials was assessed at 4-7 weeks after application and was recorded following EPPO PP1/26 guideline prescriptions. Area under the disease progress curve (AUDPC) was calculated for each plot in both trials using the sets of recorded severity data. Relative AUDPC (% control based on AUDPC) was calculated as percent of the nontreated control. Final results for the control of yellow rust of wheat by the compound of Formula I, fenpicoxamid, and mixtures are reported as an average of the relative AUDPC calculated over both field trials. Statistical analysis was done according to ANOVA and Tukey's test (p=0.10).

For test [2], the system named is Puccinia recondita (PUCCRT). The test is described as follows: Field assessment of brown rust of wheat (PUCCRT), 2 field trials, relative AUDPC. The settings on record: % control based on AUDPC, average of 2 trials.
Excerpt: as §1
Field Assessment of Puccinia recondita (PUCCRT) in Wheat:
Fungicidal treatment containing the compound of Formula I and fenpicoxamid, either individually or as a two mixture, were assessed against brown rust of wheat (PUCCRT) in two separate field trials. In the first trial, fungicidal treatments were applied at B37-39 (protectant, approximately 0% infection at application) growth stage of wheat (TRZAW, MV Vanek variety) under natural infection of brown rust. The treatment was part of an experimental trial designed as a randomized complete block with four replications and a plot of approximately 2×3 m. Fungicidal treatments were applied at a water volume of 200 L/ha, using a backpack plot sprayer with a TEEJET QJ90-2XTT110 015 Nozzle.
In the second trial, fungicidal treatments containing the compound of Formula I and fenpicoxamid, either individually or as a two way mixture, were applied at B33 (curative, approximately 6.6% infection at application) growth stage of wheat (TRZAW, Miradoux variety) under natural infection of brown rust. The treatments were part of an experimental trial designed as a randomized complete block with four replications and a plot of approximately 2×3 m. Fungicidal treatments were applied at a water volume of 200 L/ha, using a backpack plot sprayer with a HARDI MD110-02 Nozzle.
as §2, with “5” for “4-7”, “brown” for “yellow”

The test system of test [3] is Zymoseptoria tritici (SEPTTR). The test is described as follows: Field assessment of leaf blotch of wheat (SEPTTR), 3 field trials, relative AUDPC. Particulars: % control based on AUDPC, average of 3 trials.
Excerpt: as §1
Field Assessment of Zymoseptoria Tritici (SEPTTR) in Wheat:
Fungicidal treatments containing the compound of Formula I and fenpicoxamid, either individually or as a two way mixture, were assessed against leaf spot of wheat (SEPTTR) in three separate field trials. In the first trial, fungicidal treatments were applied at B37 (curative, 1.8% infection at application on L4) growth stage of winter wheat (TRZAW, Sy moisson variety) under naturally occurring infection with SEPTTR. The treatments were part of an experimental trial designed as a randomized complete block with four replications and a plot of approximately 2×4 m. Treatments were applied at water volume of 200 L/ha, using a backpack plot sprayer (BKPCKAIR, FLAT FAN nozzle) and pressurized at 250 kPa.
In the second trial, fungicidal treatments were applied twice at B32 (curative, 15% infection at application on L5) and B39 (16% infection at application on L4) growth stages of winter wheat (TRZAW, Riband variety) under naturally occurring infection with SEPTTR. The treatments were part of an experimental trial designed as a randomized complete block with four replications and a plot of approximately 1.5×2 m. Treatments were applied at water volume of 200 L/ha, using a backpack plot sprayer (BKPCKAIR, Flat fan nozzle) and pressurized at 180 kPa.
In the final trial, fungicidal treatments were applied twice at B32 (protective, 15% infection at application on L6) and B37 (12% infection at application on L5) growth stages of winter wheat (TRZAW, Smaragd variety) under naturally occurring infection with SEPTTR. […]
as §2, with “at 7-9” for “at 4-7”, “of leaf spot” for “of yellow rust”, “over all three” for “over both”, “trials. […]” for “trials. Statistical analysis was done according to ANOVA and Tukey's test (p=0.10).”

On to `COc1ccnc(C(=O)N[C@H]2COC(=O)[C@H](Cc3ccccc3)[C@@H](OC(=O)C(C)C)[C@H](C)OC2=O)c1OCOC(=O)C(C)C` [Fenpicoxamid, (3S,6S,7R,8R)-8-benzyl-3-(3-((isobutyryloxy)methoxy)-4-methoxypicolinamido)-6-methyl-4,9-dioxo-1,5-dioxonan-7-yl isobutyrate], for which the entries for the “PUCCST % Control” value in test [1] (75 g ai/ha) and in test [1] (100 g ai/ha) were 56.5% and 60.5%, respectively. In addition, the “PUCCRT % Control” value in test [2] (75 g ai/ha) is 63.5%; in test [2] (100 g ai/ha), 74.5%. Moreover, the “SEPTTR % Control” value in test [3] (50 g ai/ha) turned out to be 48.7%; in test [3] (75 g ai/ha), 57.7%.

In the case of `N#Cc1ccc(Oc2ccc(C(F)(F)C(O)(Cn3nc[nH]c3=S)c3ccc(F)cc3F)nc2)cc1` (stereo not drawn) [Compound I, 4-((6-(2-(2,4-difluorophenyl)-1,1-difluoro-2-hydroxy-3-(5-thioxo-4,5-dihydro-1H-1,2,4-triazol-1-yl)propyl)pyridin-3-yl)oxy)benzonitrile], the results for the “PUCCST % Control” value in test [1] (75 g ai/ha) and in test [1] (150 g ai/ha) were 82.7% and 85.5%, respectively. Further, the results for the “PUCCRT % Control” value in test [2] (75 g ai/ha) and in test [2] (150 g ai/ha) were 79.7% and 89.0%, respectively. The “SEPTTR % Control” value worked out at 48.2% in test [3] (75 g ai/ha) and 65.8% in test [3] (150 g ai/ha).
